# Assay results from ChEMBL document CHEMBL2390848, “Anticancer effect of altersolanol A, a metabolite produced by the endophytic fungus Stemphylium globuliferum, mediated by its pro-apoptotic and anti-invasive potential via the inhibition of NF-κB activity” (Bioorg Med Chem, 2013).
# Calls of active or inactive are those of the source. No cut-off for these calls is given here.
# Tests used:
# K562 [1] = test: Cytotoxicity against human K562 cells at 100 uM after 24 hrs by trypan blue exclusion test; assay type: functional, cell-based
# K562 [2] = test: Inhibition of TNFalpha-induced NF-kappa-B transcriptional activity in human K562 cells pretreated with compound at 100 uM for 2 hrs measured 6 hrs post TNFalpha challenge by luciferase reporter gene assay; assay type: cell-based
# [3] = (§1) Inhibition of TNFalpha-induced NF-kappa-B transcriptional activity in human K562 cells pretreated with compound for 2 hrs measured 6 hrs post TNFalpha challenge by luciferase reporter gene assay; assay type: cell-based
# K562 [4] = test: as §1; assay type: cell-based
# K562 [5] = test: Cytotoxicity against human K562 cells after 48 hrs by trypan blue exclusion test; assay type: functional, cell-based; settings: K562, 48 h
# K562 [6] = test: Cytotoxicity against human K562 cells after 24 hrs by trypan blue exclusion test; assay type: functional, cell-based; settings: K562, 24 h
# K562 [7] = test: Cytotoxicity against human K562 cells at 0.5 to 100 uM after 8 to 72 hrs by trypan blue exclusion test; assay type: functional, cell-based
# A549 [8] = test: Antimigratory activity against human A549 cells treated at 25 uM after scratching measured at 6 hrs interval over 120 hrs by scratch-wound assay; assay type: functional, cell-based
# A549 [9] = test: Antiproliferative activity against human A549 cells measured at 6 hrs over 120 hrs by videomicroscopy analysis; assay type: functional, cell-based
# K562 [10] = test: Antiproliferative activity against human K562 cells measured at 6 hrs over 120 hrs by videomicroscopy analysis; assay type: functional, cell-based
# K562 [11] = test: Induction of apoptosis in human K562 cells assessed as reduction in Bcl-xL expression after 16 to 72 hrs by Western blot analysis; assay type: functional, cell-based
# K562 [12] = test: Induction of apoptosis in human K562 cells assessed as reduction in XIAP expression after 16 to 72 hrs by Western blot analysis; assay type: functional, cell-based
# K562 [13] = test: Induction of apoptosis in human K562 cells assessed as cleavage of caspase-9 after 16 to 24 hrs by Western blot analysis; assay type: functional, cell-based
# K562 [14] = test: Induction of apoptosis in human K562 cells assessed as reduction in Mcl-1 expression after 16 to 72 hrs by Western blot analysis; assay type: functional, cell-based
# K562 [15] = test: Induction of apoptosis in human K562 cells assessed as cleavage of caspase-3 after 16 to 24 hrs by Western blot analysis; assay type: functional, cell-based
# K562 [16] = test: Induction of apoptosis in human K562 cells after 16 to 72 hrs using annexin V-propidium iodide staining by FACS analysis; assay type: functional, cell-based
# K562 [17] = test: Cell cycle arrest in human K562 cells assessed as accumulation at sub-G1 phase at 4 uM after 72 hrs by flow cytometry relative to untreated control; assay type: functional
# K562 [18] = test: Cell cycle arrest in human K562 cells assessed as accumulation at sub-G1 phase at 4 uM after 48 hrs by flow cytometry relative to untreated control; assay type: functional
# K562 [19] = test: Cell cycle arrest in human K562 cells assessed as accumulation at sub-G1 phase after 16 hrs by flow cytometry relative to untreated control; assay type: functional
# K562 [20] = test: Cell cycle arrest in human K562 cells assessed as accumulation at sub-G1 phase after 24 hrs by flow cytometry relative to untreated control; assay type: functional
# K562 [21] = test: Cell cycle arrest in human K562 cells assessed as accumulation at sub-G1 phase after 16 to 72 hrs by flow cytometry; assay type: functional, cell-based
# K562 [22] = test: Cell cycle arrest in human K562 cells assessed as accumulation at sub-G1 phase at 0.2 to 10 uM by flow cytometry; assay type: functional, cell-based; settings: TDE = time-dependent effect
# A549 [23] = test: Cytotoxicity against human A549 cells after 24 hrs by XTT assay; assay type: functional, cell-based; settings: A549, 24 h
# PBMC [24] = test: Cytotoxicity against human PBMCs after 24 hrs by trypan blue exclusion test; assay type: cell-based
# PBMC [25] = test: Effect on metabolism of human PBMCs after 24 hrs by CellTiter-Glo luminescent cell viability assay; assay type: functional, cell-based
smiles,measurement,setting,value
COc1cc(O)c2c(c1)[C@H](O)[C@H]1C[C@](C)(O)[C@H](O)C[C@@H]1C2=O,Activity,K562 [1],inactive
same,inhibition,K562 [2],inactive
COc1cc(OC(C)=O)c2c(c1)C(=O)C1=C(C2=O)[C@H](OC(C)=O)[C@@H](OC(C)=O)[C@@](C)(O)[C@@H]1OC(C)=O,IC50,[3],4.64 µM
same,inhibition,K562 [4],Dose-dependent effect
same,EC50,K562 [5],2.5 µM
same,EC50,K562 [6],4 µM
same,Activity,K562 [7],Active
COc1cc(O)c2c(c1)[C@H](O)[C@@H]1[C@@H](C2=O)[C@H](O)[C@@H](O)[C@@](C)(O)[C@@H]1O,Activity,K562 [1],inactive
same,inhibition,K562 [2],inactive
COc1cc(O)c2c(c1)C(=O)C1=C(C2=O)[C@H](O)[C@@H](O)[C@@](C)(O)[C@@H]1O [ALTERSOLANOL A],Activity,A549 [8],Active
same,EC50,A549 [9],> 2 µM
same,EC50,K562 [10],> 1 µM
same,IC50,[3],0.8 µM
same,inhibition,K562 [4],Dose-dependent effect
same,Activity,K562 [11],Dose-dependent effect
same,Activity,K562 [12],Dose-dependent effect
same,Activity,K562 [13],Dose-dependent effect
same,Activity,K562 [14],Dose-dependent effect
same,Activity,K562 [15],Dose-dependent effect
same,Activity,K562 [16],Dose-dependent effect
same,Activity,K562 [17],65%
same,Activity,K562 [18],65%
same,Activity,K562 [19],40%
same,Activity,K562 [20],40%
same,Activity,K562 [21],Dose-dependent effect
same,Activity,K562 [22],tde
same,EC50,A549 [23],29.5 µM
same,Activity,PBMC [24],Non-toxic
same,EC50,PBMC [25],4.2 µM
same,EC50,K562 [5],2.5 µM
same,EC50,K562 [6],4 µM
same,Activity,K562 [7],Active
